Test results: US20030124727A1, “Multivalent cationic lipids and methods of using same in the production of lipid particles” (priority 2001, published 2003)

Assays:
[1] = 31P NMR polymorphic phase properties of cationic lipid/DPPS mixtures (bilayer-to-non-bilayer transition); format: physicochemical; conditions: for temperature at which the mixture adopts the H∥ phase / non-bilayer structure: mixture with DPPS equimolar with respect to charge, hydrated in distilled water; for 31P NMR lineshape (phase structure) at 25° C.: mixture with DPPS
From the text: As noted above, the ability of cationic lipids to induce the hexagonal H∥ phase in combination with anionic lipids correlates well with their transfection properties in plasmid DNA-cationic lipid complexes. The relative ability of cationic lipids to induce the H∥ phase can be ascertained by measuring the bilayer-to-non-bilayer transition temperature (Tc) of the cationic lipid in equimolar mixtures (with respect to charge) with an anionic phospholipid such as 1,2-dipalmitoyl-sn-glycero-3-[phospho-L-serine] (DPPS). The bilayer-to-non-bilayer transition can be conveniently monitored employing ^31P NMR techniques (12).
To evaluate the polymorphic phase properties of mixtures of TODMAC3 and TODMAC6 with DPPS, lipid mixtures containing 40-50 mg DPPS and appropriate molar ratios of cationic lipids N,N-dioleyl-N-N-dimethylammonium chloride (DODAC), TODMAC3, and TODMAC6 were prepared by drying from chloroform solution, placed in 10 mm NMR tubes and hydrated with 1.5 mL distilled water. Free induction decays (FIDs) corresponding to 1000 scans were obtained by using a […] 60° pulse with a […] interpulse delay and a spectral width of 25,000 Hz. A gated two-level proton decoupling was used to ensure sufficient decoupling with minimum sample heating. An exponential multiplication corresponding to 50 Hz of line broadening was applied to the FIDs prior to Fourier transformation. The sample temperature (±1° C.) was regulated using a Bruker B-VT1000 variable temperature unit. Chemical shifts were referenced to 85% phosphoric acid as an external standard.

[2] = tested on: BHK cells; test: In vitro transfection of BHK cells with plasmid DNA-cationic lipid complexes (luciferase expression); format: cell-based, hamster; conditions: for transfection properties compared among DODAC, TODMAC6 and TODMAC3: complexes formed from ethanol solution, no DOPE, FIG. 4; for transfection potency relative to complexes containing DODAC: cationic lipid/DOPE vesicles, LO18 luciferase plasmid, FIG. 3
Method: Lipoplexes were prepared in distilled water at pDNA concentrations ranging from 12.5-25 μg pDNA/ml at positive-to-negative charge ratios between 0.5-5. Plasmid DNA was added under vortexing to cationic LUVs (cationic lipid/DOPE 1:1). In the absence of the helper lipid DOPE, lipoplexes were prepared by addition of the cationic lipids from ethanol solutions to an aqueous solution containing the pDNA. The amount of ethanol in these formulations was between 0.4-2.3%. The lipoplexes were incubated at room temperature for 30 min, diluted to a final concentration of 2.5 μg pDNA/ml with serum-free media (Dulbecco's Modified Eaglels Medium, DMEM) and subsequently applied to BHK cells.
BHK cells, grown in DMEM supplemented with 10% fetal calf serum (FCS), 100 U/ml of penicillin and 100 μg/ml of streptomycin, were seeded in 96-well plates at a density of 1×10^4 cells per well 24 h before transfection. The next day media was removed and replaced with 100 μl of lipoplexes dispersed in serum-free DMEM (0.25 μg pDNA/100 μl), After 4 hr, lipoplexes were replaced with serum-containing DMEM and cells further incubated for 20 h. After that, the culture medium was aspirated, the cells washed twice with 100 μl of PSS and then lysed through addition of 50 μl of lysis buffer (1% Triton X-100 in PBS). Luciferase activity was measured with a Dynex Luminometer (Dynex model ML3000) using the Luciferase Assay Kit from Promega. The total protein concentration per well was determined using the BCA assay from Pierce. Means and standard deviations were calculated from three independent experiments.
(§1) DNA plasmid complexes containing TODMAC3 and TODMAC6 are usually formed by mixing plasmid DNA with preformed vesicles containing the cationic lipid mixed with equimolar amounts of the- “helper” lipid- dioleoyfphosphatidylethanolamine (DOPE) (17, 1-8). […] FIG. 3 illustrates the transfection properties of complexes prepared at cationic lipid-to-DNA charge ratios (positive to negative) ranging from 0.5 to 5.
In order to test the relative transfection potencies of DODAC, TODMAC6 and TODMAC3 a different procedure was used to associate the cationic lipid with the plasmid to form the complexes. In this method the cationic lipid dissolved in ethanol was introduced into an aqueous solution of the plasmid and DOPE was not present. […] Specifically, for charge ratios −2.5, TODMAC6 complexes gave rise to luciferase expression levels 5-20 fold higher than could be achieved with DODAC or TODMAC3.

[3] = Preparation of vesicles / bilayer structures on dispersion in aqueous medium; format: physicochemical; conditions: for preparation of vesicles from cationic lipid/DOPE mixtures: equimolar mixture with DOPE, hydration of lipid film and extrusion; for formation of bilayer structures on dispersion in an aqueous medium: in the presence and absence of DOPE
Method: To prepare large unilamellar vesicles (LUV), mixtures of cationic lipids and DOPE in chloroform were dried under a stream of nitrogen gas and the residual solvent removed under high vacuum for 2 hours. The resulting lipid films were hydrated with distilled water. LUVs were obtained by extruding the lipid dispersions 10 times through two stacked 100-nm pore size polycarbonate filters (Costar Nuclepore polycarbonate membrane, Lipex Biomembranes extruder) (15). Phospholipid concentrations were determined by the inorganic phosphorus assays according to Fiske and Subbarow (16).
as §1

temperature at which the mixture adopts the H∥ phase / non-bilayer structure ([1]; 31P NMR) [°C]	31P NMR lineshape (phase structure) at 25° C. [1]	temperature at which an H∥ component is visible (limited subset of the DPPS; bulk remains bilayer) ([1]; TODMAC3/DPPS 0.5:1 mol:mol (equimolar in charge), 31P NMR) [°C]	temperature of apparently complete H∥ organization ([1]; TODMAC3/DPPS ratio 2:1 on a charge basis) [°C]	preparation of vesicles from cationic lipid/DOPE mixtures [3]	formation of bilayer structures on dispersion in an aqueous medium [3]	Structure (SMILES)	transfection properties compared among DODAC, TODMAC6 and TODMAC3 ([2]; charge ratios of two and lower)	phase properties of equimolar mixture with DPPS ([1]; equimolar (mol) proportions of TODMAC3 and DPPS, compared with 0.5:1)	transfection potency relative to complexes containing DODAC ([2]; charge ratios higher than two (up to 5))	transfection potency relative to complexes containing DODAC ([2]; charge ratios of two or lower)	transfection properties compared among DODAC, TODMAC6 and TODMAC3 ([2]; charge ratios above two)	luciferase expression levels higher than could be achieved with DODAC or TODMAC3 ([2]; complexes without DOPE, charge ratios −2.5)
> 35	bilayer structure					CCCCCCCC/C=C\CCCCCCCC[N+](C)(C)CCCCCCCC/C=C\CCCCCCCC.[Cl-] [DODAC, N,N-dioleyl-N-N-dimethylammonium chloride, reference compound]	superior					
		≤ 15	≥ 25	could not be prepared	does not	CCCCCCCC/C=C\CCCCCCCC[N+](C)(CCCCCCCC/C=C\CCCCCCCC)CCC[N+](C)(CCCCCCCC/C=C\CCCCCCCC)CCCCCCCC/C=C\CCCCCCCC.[Cl-].[Cl-] [TODMAC3, N,N,N1,N1-Tetraoleyl.N,N′-dimethyl-1,3-propanediammonium Chloride]		increased preference for H∥ phase structure				
~30	bilayer structure			could be readily prepared	readily forms bilayer structures	CCCCCCCC/C=C\CCCCCCCC[N+](C)(CCCCCCCC/C=C\CCCCCCCC)CCCCCC[N+](C)(CCCCCCCC/C=C\CCCCCCCC)CCCCCCCC/C=C\CCCCCCCC.[Cl-].[Cl-] [TODMAC6, N,N,N′,N′-Tetraoleyl-N,N′-dimethyl-1,6-hexanediammonium chloride]			greater	comparable to or slightly lower	superior to both DODAC and TODMAC3	5-20 fold
